Test results taken from paper PMC11251504 (Hypertension (Dallas, Tex. : 1979), 2024).
Entries after “also recorded” stand apart in the source; their conditions may differ. Peptide text beside a SMILES is read from it.

What was measured:
[1] = Metabolism of Ang-(1-12) in 1:10 diluted human plasma with and without enzyme inhibitors; settings: 37 °C; for Angiotensin metabolite generated from Ang-(1-12), aliskiren + lisinopril / Angiotensin metabolite generated from Ang-(1-12), aliskiren: 60 min after adding 1000 ng/mL Ang-(1-12), t=0 level subtracted; for Angiotensin metabolite generated from Ang-(1-12), aliskiren + lisinopril: aliskiren 10 µmol/L + lisinopril 10 µmol/L; for Angiotensin metabolite generated from Ang-(1-12), aliskiren: aliskiren 10 µmol/L
Protocol: Heparin plasma was obtained from 3 healthy volunteers (1 woman, 2 men; age range 30–40 years). The plasma was incubated for 1 hour at 37 °C, in the absence or presence of the renin inhibitor aliskiren (10 µmol/L), the ACE inhibitor lisinopril (10 µmol/L), the chymase inhibitor chymostatin (10 µmol/L), the aminopeptidase A inhibitor amastatin (10 µmol/L), the neprilysin inhibitor sacubitrilat (LBQ-657, 10 µmol/L), or the prolyl oligopeptidase inhibitor ZPP (20 µmol/L). All inhibitors were from Sigma Aldrich, St. Louis, MO. Next, the plasma was diluted 1:10 in PBS (t=0) and incubated again for 1 hour at 37 °C (t=60) with 1000 ng/mL Ang-(1-12; Sigma Aldrich). Samples at 0 and 60 minutes were collected in 6 mol/L guanidine hydrochloride, and angiotensins were quantified by LC-MS/MS.
Human ([sequence], molecular weight: 1508.8 Da) and murine ([sequence], molecular weight: 1572.8 Da) Ang-(1-12) were quantified by LC-MS/MS. […] The powder was dissolved by cooled sonication using a 2-mm microtip (Sonics and Materials, Newton, NJ). Stable isotope-labeled IS for human and murine Ang-(1-12)–containing isoleucine C^13/N^15 (mass +7) at [Ile5] were spiked to tissue homogenates and stabilized blood samples at 1000 pg/mL for internal standardization. The samples then underwent C18-based solid-phase extraction for purification before being subjected to liquid chromatography using a reversed-phase analytical column operating in line with a Xevo TQ-S triple quadruple mass spectrometer (Waters). Two independent MS/MS transitions based on the mass-to-charge ratio of the parent (+3) and fragment ions (+2) were recorded for each analyte and IS simultaneously. Signals from IS were used to correct for peptide recovery in the sample preparation procedure and matrix signal suppression for each analyte in each individual sample.
Data are provided as individual values and means. Statistical analysis was done by the Student’s t test or by ANOVA, followed by post hoc correction according to Dunnett.

[2] = Disappearance of Ang-(1-12) added to nonstabilized human plasma incubated at 37 °C; type: in vitro ADME; settings: LC-MS/MS
Protocol: MS/MS transitions were as follows:
Signals for all 4 analytes were recorded simultaneously in all samples to show the specificity of the gained signals. […] The lower limit of quantification was 2 fmol/mL in blood and 10 fmol/g in tissue (ie, 3 pg/mL and 15 pg/g, respectively). Ang I, Ang II, Ang III, Ang IV, Ang-(1-7), and Ang-(1-5) were determined by LC-MS/MS as described before.[27],[28]
A rapid collection of blood in 6 mol/L guanidine hydrochloride was chosen for blood collection since this allowed a full recovery of spiked Ang-(1-12; Figure 1A). Importantly, Ang-(1-12) remained undetectable when incubating nonstabilized plasma at 37 °C (Figure 1B), while Ang-(1-12) added to nonstabilized human plasma disappeared almost completely (>80%) within 10 minutes during incubation at 37 °C (Figure 1B). Stabilized human blood samples contained Ang I and Ang II, but Ang-(1-12) was not detectable (Figure 2C). Plasma obtained from the same patients contained normal renin and angiotensinogen levels (Figure 2A and 2B).[29],[30]

[3] = Recovery of spiked Ang-(1-12) from blood collected in 6 mol/L guanidine hydrochloride; type: in vitro ADME; settings: human blood collected in 6 mol/L guanidine hydrochloride; LC-MS/MS with stable isotope-labeled IS
[4] = system: angiotensin-converting enzyme (ACE); experiment: extracellular, eg, in blood; settings: cited from earlier work
neprilysin = experiment: renal cortical membranes; settings: cited from earlier work
chymase = experiment: intracellular, eg, at tissue sites; settings: cited from earlier work
[5] = Heparin plasma from 3 healthy volunteers, diluted 1:10 in PBS; settings: human, 37 °C, up to 60 minutes
[6] = 1:10 diluted human plasma, LC-MS/MS

CC[C@H](C)[C@H](NC(=O)[C@H](Cc1ccc(O)cc1)NC(=O)[C@@H](NC(=O)[C@H](CCCNC(=N)N)NC(=O)[C@@H](N)CC(=O)O)C(C)C)C(=O)O [Ang-(1-5)] (H-DRVYI-OH)
Angiotensin metabolite generated from Ang-(1-12), aliskiren + lisinopril [1, 6]: < 2 pg/mL | Angiotensin metabolite generated from Ang-(1-12), aliskiren [1, 6]: 983 pg/mL

CC[C@H](C)[C@H](NC(=O)[C@H](Cc1ccc(O)cc1)NC(=O)[C@@H](NC(=O)[C@H](CCCNC(=N)N)NC(=O)[C@@H](N)CC(=O)O)C(C)C)C(=O)N[C@@H](Cc1c[nH]cn1)C(=O)N1CCC[C@H]1C(=O)O [Ang-(1-7)]
Reduction in metabolite formation from Ang-(1-12) by ACE inhibition ([1]; 1:10 diluted human plasma, 60 min, aliskiren + lisinopril vs aliskiren): 50% | Angiotensin metabolite generated from Ang-(1-12), aliskiren + lisinopril [1, 6]: 946 pg/mL | Angiotensin metabolite generated from Ang-(1-12), aliskiren [1, 6]: 2238 pg/mL

CC[C@H](C)[C@H](NC(=O)[C@@H](NC(=O)[C@H](CC(C)C)NC(=O)[C@H](Cc1c[nH]cn1)NC(=O)[C@H](Cc1ccccc1)NC(=O)[C@@H]1CCCN1C(=O)[C@H](Cc1c[nH]cn1)NC(=O)[C@@H](NC(=O)[C@H](Cc1ccc(O)cc1)NC(=O)[C@@H](NC(=O)[C@H](CCCNC(=N)N)NC(=O)[C@@H](N)CC(=O)O)C(C)C)[C@@H](C)CC)C(C)C)C(=O)O [Ang-(1-12), Angiotensin-(1-12)] (H-DRVYIHPFHLVI-OH)
Fraction of added Ang-(1-12) that disappeared within 10 minutes ([2]; 10 minutes): > 80% | metabolised at 10 min ([2]; 10 minutes, read-out: Fraction of added Ang-(1-12) that disappeared within 10 minutes): ~80% | Time within which added angiotensin-(1-12) disappeared [2]: ≤ 10 min | Recovery of spiked Ang-(1-12) [3]: full recovery | Contribution of chymase to Ang-(1-12) metabolism ([1]; 1:10 diluted human plasma, 60 min, 1000 ng/mL, chymase inhibitor chymostatin 10 µmol/L, LC-MS/MS, n = 3): did not contribute to its metabolism | Contribution of prolyl oligopeptidase to Ang-(1-12) metabolism ([1]; 1:10 diluted human plasma, 60 min, 1000 ng/mL, prolyl oligopeptidase inhibitor ZPP 20 µmol/L, LC-MS/MS, n = 3): did not contribute to its metabolism | Disappearance of Ang-(1-12) in the presence of aliskiren ([1]; 1:10 diluted human plasma, 60 min, 1000 ng/mL, renin inhibitor aliskiren 10 µmol/L, LC-MS/MS, n = 3): unaltered | Change in Ang-(1-12) recovery after inhibiting neprilysin ([1]; 1:10 diluted human plasma, 60 min, 1000 ng/mL, sacubitrilat (LBQ-657) 10 µmol/L, LC-MS/MS, n = 3): did not observe a change | Change of Ang-(1-12) half-life on addition of lisinopril ([1]; 1:10 diluted human plasma, 60 min, 1000 ng/mL, subsequent addition of ACE inhibitor lisinopril 10 µmol/L, LC-MS/MS, n = 3): doubling the half-life | Change of Ang-(1-12) half-life on addition of amastatin ([1]; 1:10 diluted human plasma, 60 min, 1000 ng/mL, subsequent addition of aminopeptidase A inhibitor amastatin 10 µmol/L, LC-MS/MS, n = 3): tripling the half-life | Half-life of Ang-(1-12) corresponding to undiluted plasma ([1]; extrapolated from 1:10 diluted human plasma): < 3 min

DRVYIHPFHLVI
fragment found [4]: Ang I; also recorded: Ang II | fragment found (neprilysin): Ang-(1-7) | fragment found (chymase): Ang II | fragment found [5]: Ang I; also recorded: Ang II; also recorded: Ang-(1-5)

angiotensin II (DRVYIHPF; Angiotensin-2; UniProt P01019 25-32, looked up) [Ang II]
Angiotensin metabolite generated from Ang-(1-12), aliskiren + lisinopril [1, 6]: 417 pg/mL | Angiotensin metabolite generated from Ang-(1-12), aliskiren [1, 6]: 7239 pg/mL
